Drawing on DBAASP, this text covers MIC for 12 molecules.

Some test systems named below: Aeromonas hydrophila; Escherichia coli MG1655; Vibrio harveyi.
Holding throughout (test): ≥ marks a high value that may be exact or a test limit, other limits are often not marked, values filed in µg/mL are converted to µM
In test [1] the test system is Erwinia amylovora PMV 6076.
For test [2], the system named is Pseudomonas syringae pv. syringae EPS 94.
Test [3] relates to Acinetobacter baumannii ATCC 19606.
The subject of test [4] is Candida albicans ATCC 90028.
The subject of test [5] is Cryptococcus neoformans ATCC 208821.
Test [6] deals with Escherichia coli ATCC 25922.
In test [7] the test system is Klebsiella pneumoniae ATCC 700603.
In test [8] the test system is Pseudomonas aeruginosa ATCC 27853.
Test [9] relates to Staphylococcus aureus ATCC 43300.
Test [10] relates to Staphylococcus aureus ATCC BAA-1556.
For test [11], the system named is Cronobacter sakazakii DPC 6440.
Test [12] relates to Listeria monocytogenes LO28.

The structures appear in SMILES notation. Converted amounts (≈) assume the structure as drawn. “And” between values parts separate entries of the source, which are not always exact repeats. Equal entries are not always repeated.

In general, MIC refers to the lowest concentration found to suppress growth. Turning to `CC[C@H](C)[C@H](NC(=O)[C@H](C)NC(=O)[C@H](CCCN=C(N)N)NC(=O)[C@H](Cc1cnc[nH]1)NC(=O)[C@@H](NC(=O)[C@H](C)NC(=O)[C@H](CCCN=C(N)N)NC(=O)[C@@H](NC(=O)CNC(=O)[C@H](C)NC(=O)[C@H](CO)NC(=O)[C@@H](NC(=O)[C@H](Cc1c[nH]c2ccccc12)NC(=O)CNC(=O)[C@@H](NC(=O)[C@@H](NC(=O)[C@H](Cc1cnc[nH]1)NC(=O)[C@H](Cc1cnc[nH]1)NC(=O)[C@@H](NC(=O)[C@@H](N)Cc1ccccc1)[C@@H](C)CC)[C@@H](C)CC)[C@@H](C)CC)[C@@H](C)CC)C(C)C)[C@@H](C)CC)C(=O)N[C@@H](Cc1cnc[nH]1)C(N)=O` [FIHHIIGWISAGVRAIHRAIH], the MIC in the test with Aeromonas hydrophila is not below 128 µM; against Escherichia coli MG1655 it was 8 µM and 16 µM; in the test with Vibrio harveyi it was not below 64 µM.
With `CC[C@H](C)[C@H](NC(=O)[C@H](C)NC(=O)[C@H](CCCN=C(N)N)NC(=O)[C@@H](NC(=O)CNC(=O)[C@H](Cc1cnc[nH]1)NC(=O)[C@H](CO)NC(=O)[C@@H](NC(=O)[C@H](Cc1c[nH]c2ccccc12)NC(=O)CNC(=O)[C@@H](NC(=O)[C@@H](NC(=O)[C@H](Cc1cnc[nH]1)NC(=O)[C@H](Cc1cnc[nH]1)NC(=O)[C@@H](NC(=O)[C@@H](N)Cc1ccccc1)[C@@H](C)CC)[C@@H](C)CC)[C@@H](C)CC)[C@@H](C)CC)C(C)C)C(=O)N[C@@H](C)C(=O)N[C@@H](CCCN=C(N)N)C(=O)N[C@@H](C)C(=O)N[C@H](C(=O)N[C@@H](Cc1cnc[nH]1)C(N)=O)[C@@H](C)CC` [FIHHIIGWISHGVRAIARAIH], the MIC is not below 128 µM in the test with Aeromonas hydrophila; 8 µM and 16 µM in the test on Escherichia coli MG1655; 16 µM (≈ 38.5 µg/mL) against Vibrio harveyi.
For the molecule `CC[C@H](C)[C@H](NC(=O)[C@H](C)NC(=O)[C@H](CCCN=C(N)N)NC(=O)[C@H](Cc1cnc[nH]1)NC(=O)[C@@H](NC(=O)[C@H](C)NC(=O)[C@H](CCCN=C(N)N)NC(=O)[C@@H](NC(=O)CNC(=O)[C@H](Cc1cnc[nH]1)NC(=O)[C@H](CO)NC(=O)[C@@H](NC(=O)[C@H](Cc1c[nH]c2ccccc12)NC(=O)CNC(=O)[C@@H](NC(=O)[C@@H](NC(=O)[C@H](Cc1cnc[nH]1)NC(=O)[C@H](Cc1cnc[nH]1)NC(=O)[C@@H](NC(=O)[C@@H](N)Cc1ccccc1)[C@@H](C)CC)[C@@H](C)CC)[C@@H](C)CC)[C@@H](C)CC)C(C)C)[C@@H](C)CC)C(=O)N[C@@H](C)C(N)=O` [FIHHIIGWISHGVRAIHRAIA], the MIC against Aeromonas hydrophila and against Vibrio harveyi was 16 µM (≈ 38.5 µg/mL) in each case.
For the molecule `CC[C@H](C)[C@H](NC(=O)[C@H](CCCCN)NC(=O)[C@H](CCCCN)NC(=O)[C@H](Cc1ccccc1)NC(=O)[C@H](CC(C)C)NC(=O)[C@H](CCCCN)NC(=O)[C@H](CCCCN)NC(=O)CN)C(=O)N[C@@H](CC(C)C)C(=O)N[C@@H](CCCCN)C(=O)N[C@@H](Cc1ccc(O)cc1)C(=O)N[C@@H](CC(C)C)C(=O)N[C@@H](C)C(=O)NCC(=O)N1CCC[C@H]1C(=O)N[C@@H](C)C(=O)N[C@@H](CCCCN)C(=O)N[C@@H](Cc1ccccc1)C(=O)N[C@@H](CC(C)C)C(=O)N[C@@H](Cc1cnc[nH]1)C(=O)N[C@@H](CO)C(=O)N[C@@H](C)C(=O)N[C@@H](CCCCN)C(=O)O` [GKKLFKKILKYLAGPAKFLHSAK], the figures for the MIC in test [1] and in test [2] were 1.77 µM (≈ 4.57 µg/mL) and 3.54 µM (≈ 9.15 µg/mL), respectively.
`CC(C)C[C@H](NC(=O)CNC(=O)[C@H](CO)NC(=O)CNC(=O)[C@H](CCCN=C(N)N)NC(=O)[C@H](CCCN=C(N)N)NC(=O)CN)C(=O)NCC(=O)N[C@@H](CCCN=C(N)N)C(=O)N[C@@H](CO)C(=O)N[C@@H](CO)C(=O)N[C@@H](CO)C(=O)N[C@@H](CCCN=C(N)N)C(=O)NCC(=O)N[C@@H](CCC(N)=O)C(=O)N[C@@H](CCCN=C(N)N)C(=O)NCC(=O)N[C@@H](CO)C(=O)NCC(=O)N[C@@H](CO)C(=O)NCC(=O)N[C@@H](CCCN=C(N)N)C(=O)O` [GRRGSGLGRSSSRGQRGSGSGR]: the MIC in test [3] is more than 14.7 µM; in [4], 14.7 µM (≈ 32 µg/mL); in test [5], 14.7 µM (≈ 32 µg/mL); in [6] it was more than 14.7 µM; in test [7] it was more than 14.7 µM; in [8], more than 14.7 µM. Further, the MIC in test [9] is more than 14.7 µM.
On to `C[C@H](NC(=O)[C@@H](NC(=O)[C@H](CCCN=C(N)N)NC(=O)[C@H](CO)NC(=O)CNC(=O)[C@H](CCCN=C(N)N)NC(=O)[C@H](CCC(N)=O)NC(=O)[C@@H](NC(=O)[C@H](CO)NC(=O)[C@H](CCC(N)=O)NC(=O)CNC(=O)[C@H](Cc1cnc[nH]1)NC(=O)CNC(=O)[C@H](CO)NC(=O)[C@H](Cc1cnc[nH]1)NC(=O)[C@H](C)NC(=O)[C@@H](N)Cc1cnc[nH]1)[C@@H](C)O)[C@@H](C)O)C(=O)NCC(=O)N[C@@H](CCCN=C(N)N)C(=O)O` [HAHSGHGQSTQRGSRTAGR], for which the MIC in [3] was more than 16.1 µM; in [4] it was 16.1 µM (≈ 32 µg/mL); in test [5], 16.1 µM (≈ 32 µg/mL); in test [6] it was more than 16.1 µM; in test [7], more than 16.1 µM; in test [8] it was more than 16.1 µM. This molecule yielded a minimum inhibitory concentration (MIC) in test [9] of more than 16.1 µM.
In [10], `CC(C)C[C@H](NC(=O)[C@H](CC(C)C)NC(=O)[C@H](Cc1c[nH]c2ccccc12)NC(=O)[C@H](CCCCN)NC(=O)[C@H](CC(C)C)NC(=O)[C@H](CC(C)C)NC(=O)[C@H](CCCCN)NC(=O)[C@@H](N)CCCCN)C(N)=O` [KKLLKWLL] came in with an MIC not below 100 µM.
`CC[C@H](C)[C@H](NC(=O)[C@@H](N)Cc1c[nH]c2ccccc12)C(=O)N[C@@H](CCC(N)=O)C(=O)N1CCC[C@H]1C(=O)N[C@@H](CCCCN)C(=O)N[C@H](C(=O)N[C@@H](C)C(=O)N[C@H](C(=O)N[C@H](C(=O)N1CCC[C@H]1C(=O)N[C@@H](Cc1ccc(O)cc1)C(=O)N[C@H](C(=O)N[C@@H](CCCN=C(N)N)C(=O)N[C@@H](Cc1ccc(O)cc1)C(=O)N[C@@H](CC(C)C)C(=O)O)C(C)C)[C@@H](C)CC)C(C)C)[C@@H](C)O` [WIQPKTAVIPYVRYL]: the values for the MIC in test [11] and in test [12] were not below 312 µM and not below 39.1 µM, respectively.
The matching figures for `CC[C@H](C)[C@H](NC(=O)[C@@H](N)Cc1c[nH]c2ccccc12)C(=O)N[C@@H](CCC(N)=O)C(=O)N1CCC[C@H]1C(=O)N[C@@H](CCCCN)C(=O)N[C@H](C(=O)N[C@@H](CCCCN)C(=O)N[C@H](C(=O)N[C@H](C(=O)N1CCC[C@H]1C(=O)N[C@@H](Cc1ccc(O)cc1)C(=O)N[C@H](C(=O)N[C@@H](CCCN=C(N)N)C(=O)N[C@@H](C)C(=O)N[C@@H](CC(C)C)C(=O)O)C(C)C)[C@@H](C)CC)C(C)C)[C@@H](C)O` [WIQPKTKVIPYVRAL]: not below 78.1 µM and 19.5 µM (≈ 35.4 µg/mL).
In test [10], `CC[C@H](C)[C@H](NC(=O)[C@@H](N)Cc1c[nH]c2ccccc12)C(=O)N[C@@H](CCCN=C(N)N)C(=O)N[C@@H](Cc1c[nH]c2ccccc12)C(=O)N[C@@H](CC(C)C)C(N)=O` [WIRWL] had an MIC not below 100 µM.
On the same count and under the same terms, the figure for `CC(C)C[C@H](NC(=O)[C@H](Cc1c[nH]c2ccccc12)NC(=O)[C@H](Cc1c[nH]c2ccccc12)NC(=O)[C@H](CC(C)C)NC(=O)[C@H](Cc1c[nH]c2ccccc12)NC(=O)[C@H](Cc1c[nH]c2ccccc12)NC(=O)[C@H](CC(C)C)NC(=O)[C@H](CCCN=C(N)N)NC(=O)[C@@H](N)Cc1c[nH]c2ccccc12)C(N)=O` [WRLWWLWWL] is 6.25 µM (≈ 9.02 µg/mL); for `CC[C@H](C)[C@H](NC(=O)[C@H](Cc1c[nH]c2ccccc12)NC(=O)[C@H](CCCN=C(N)N)NC(=O)[C@H](CCCN=C(N)N)NC(=O)[C@@H](N)Cc1c[nH]c2ccccc12)C(=O)N[C@@H](CCCN=C(N)N)C(=O)N[C@@H](Cc1c[nH]c2ccccc12)C(=O)N[C@@H](CC(C)C)C(N)=O` [WRRWIRWL] it is 25 µM (≈ 31.8 µg/mL).
